According to US20220260557A1, “METHODS FOR DEPLETION AND ENRICHMENT” (priority 2018, published 2022):
“And” between values parts separate entries of the source, which are not always exact repeats. Identical values can stand only once.

Experiments:
[1] = Serum biotin levels after 20 mg biotin ingestion, free biotin ELISA; details: per volunteer
Protocol: Baseline serum samples were obtained from 5 apparently healthy adult volunteers (4 male, 1 female) by antecubital venous blood draw in BD brand Vacutainer™ 10 mL red top tubes. […] Blood was allowed to clot for 1 hour at RT and centrifuged at 2,000 rpm for 15 min in a Beckman Allegra 6R tabletop centrifuge. For each time point, serum samples from each volunteer was pooled, mixed for 15 min at RT, aliquoted into 1.2 mL aliquots in 2 mL cryo-vials, and frozen at −80° C.
Samples above the kit's measuring range were diluted with the kit's sample dilution buffer.

clinical = details: human, in vivo, serum biotin level, LC-MS/MS

SMILES: O=C(O)CCCC[C@@H]1SC[C@@H]2NC(=O)N[C@@H]21 [Biotin]
- Biotin Concentration 1-hr ([1]; 1 hr after 20 mg biotin ingestion): 440 ng/mL
- Biotin Concentration 3-hr ([1]; 3 hr after 20 mg biotin ingestion): 221 ng/mL and 289 ng/mL and 184 ng/mL and 113 ng/mL and 183 ng/mL
- Biotin Concentration 6-hr ([1]; 6 hr after 20 mg biotin ingestion): 60 ng/mL and 65 ng/mL and 76 ng/mL
- Biotin Concentration 8-hr ([1]; 8 hr after 20 mg biotin ingestion): 48 ng/mL and 64 ng/mL and 65 ng/mL
- Biotin Concentration 24-hr ([1]; 24 hr after 20 mg biotin ingestion): 29 ng/mL and 26 ng/mL and 32 ng/mL and 24 ng/mL
- Biotin Concentration 0-hr ([1]; baseline before 20 mg biotin ingestion): 1.1 ng/mL and 0.1 ng/mL and 0.3 ng/mL and 0.4 ng/mL (2×)
- concentration at 1 h ([1]; both, human, in vivo, 20 mg, Biotin Concentration 1-hr, 1 hr after 20 mg biotin ingestion): 531 ng/mL
- concentration at 6 h ([1]; both, human, in vivo, 20 mg, Biotin Concentration 6-hr, 6 hr after 20 mg biotin ingestion): 107 ng/mL
- concentration at 8 h ([1]; both, human, in vivo, 20 mg, Biotin Concentration 8-hr, 8 hr after 20 mg biotin ingestion): 60 to 107 ng/mL
- concentration at 24 h ([1]; both, human, in vivo, 20 mg, Biotin Concentration 24-hr, 24 hr after 20 mg biotin ingestion): 24 to 32 ng/mL
- concentration at 6 h (clinical; 20 mg, all 5 volunteers): 17 to 35 ng/mL
- concentration at 8 h (clinical; 20 mg, 8 hours, 4 out of 5 volunteers >15 ng/mL): 16 to 28 ng/mL
- concentration at 6 h (clinical; 200 mg, 200 mg dose (so in the source)): 95 to 347 ng/mL
